From patent publication EP0184322A1, “Benzimidazoles” (SMITH KLINE & FRENCH LABORATORIES LIMITED, priority 1984, dated 1986)

system: histamine stimulated gastric acid secretion; test: Rat lumen perfused stomach (modified Ghosh and Schild procedure); format: in vivo; details: i.d. (intraduodenal) administration
Excerpt: Using a modification of the procedure described by Ghosh and Schild (Br. J. Pharmacology, 13, 54, 1958), ED . values after either intraduodenal (i.d) or intravenous (i.v) administration were obtained as follows: […]

SMILES	ED50 [µmol/kg]
COc1ccc2[nH]c([S+]([O-])Cc3ncc(C)c(N4CCOCC4)c3Cl)nc2c1 (stereo not drawn) [Example 6, 2-(4-morpholino-3-chloro-5-methyl-2-pyridylmethylsulphinyl)--5-methoxy-(1H)-benzimidazole]	1.94
COc1ccc2[nH]c([S+]([O-])Cc3ncc(C)c(N4CCCCC4)c3Cl)nc2c1 (stereo not drawn) [Example 8, 2-(4-piperidino-3-chloro-5-methyl-2-pyridylmethylsulphinyl)--5-methoxy-(1H)-benzimidazole]	2.38
COc1ccc2[nH]c([S+]([O-])Cc3ncc(C)c(N(C)C)c3Cl)nc2c1 (stereo not drawn) [Example 16, 2-(4-dimethylamino-3-chloro-5-methyl-2-pyridylmethylsulphi-nyl)-5-methoxy-(1H)-benzimidazole]	1.46
COc1ccc2[nH]c([S+]([O-])Cc3ncc(Br)c(N4CCCCC4)c3C)nc2c1 (stereo not drawn) [Example 22, 2-(4-piperidino-5-bromo-3-methyl-2-pyridylmethylsulphinyl)--5-methoxy-(1 H)-benzimidazole]	4.55

same assay, conditions: iv, i.v. administration

SMILES	ED50 [µmol/kg]
COc1ccc2[nH]c([S+]([O-])Cc3cc(N)c(Br)cn3)nc2c1 (stereo not drawn) [Example 2, 2-(4-amino-5-bromo-2-pyridylmethylsulphinyl)-5-methoxy-(1-H)-benzimidazole]	1.46
COc1ccc2[nH]c([S+]([O-])Cc3nccc(N4CCOCC4)c3Cl)nc2c1 (stereo not drawn) [Example 4, 2-(4-morpholino-3-chloro-2-pyridylmethyl-sulphinyl)-5-methoxy-(1 H)-benzimidazole]	1.17
COc1ccc2[nH]c([S+]([O-])Cc3ncc(C)c(N4CCCC4)c3Cl)nc2c1 (stereo not drawn) [Example 14, 2-(4-pyrrolidino-3-chloro-5-methyl-2-pyridylmethylsulphinyl)-5-methoxy-(1 H)-benzimidazole]	0.82
COc1ccc2[nH]c([S+]([O-])Cc3cc(N4CCCCC4)c(Br)cn3)nc2c1 (stereo not drawn) [Example 18, 2-(4-piperidino-5-bromo-2-pyridylmethylsulphinyl) - 5-methoxy-(1 H)-benzimidazole]	0.85
COc1ccc2[nH]c([S+]([O-])Cc3nccc(N4CCCCC4)c3Br)nc2c1 (stereo not drawn) [Example 20, 2-(4-piperidino-3-bromo-2-pyridylmethylsulphinyl) - 5-methoxy-(1H)-benzimidazole]	0.86
